In patent publication EP0688336B1, “PEPTIDE BORONIC ACID DERIVATIVES HAVING PROTEASE INHIBITING ACTIVITY” (Novartis AG, priority 1993, dated 1994):

Assays:
thrombin = thrombin (Homo sapiens, UniProt P00734); conditions: cited from earlier work
[1] = in vivo; cited from earlier work
[2] = test system: pooled citrated human plasma; test: In vitro coagulation assay: thrombin time (TT); format: biochemical; conditions: final thrombin concentration 5 U/ml; 10 min at 37°C preincubation
Description: (§1) In vitro coagulation assays are performed with pooled citrated human plasma. Substance to be tested or solvent are incubated with plasma for 10 min at 37°C prior to assay. Thrombin time(TT) determinations are performed at a final thrombin concentration of 5 U/ml. Activated partial thromboplastin time (APTT) is determined by incubating 0.1 ml plasma ± substance to be tested with 0.1 ml purified soya bean phospholipid in ellagic acid (Actin-FS) for 4 min at 37°C and followed by the addition of 0.1 ml CaCl2 (50mM). […] With the compound of Example 1, prolongation of TT above 300 sec is achieved at 1.8 µM, elevation of APTT to 2x the control value is achieved at 4.4 µM.

[3] = test system: pooled citrated human plasma; test: In vitro coagulation assay: activated partial thromboplastin time (APTT); format: biochemical; conditions: Actin-FS, 4 min at 37°C, CaCl2
Description: as §1

Washed human platelets = test: In vitro platelet aggregation assay induced by thrombin; format: cell-based; conditions: aggregation induced by 1 nM human thrombin
Description: Washed human platelets are prepared by a modification of the method of Ardlie ([…]. 1970, 19:7-17). Washed platelet suspension (0.46 ml) is kept at 37°C and stirred at 1100 rpm. After the addition of the substance to be tested or solvent. the platelets are maintained for 2 min before aggregation is induced by 1 nM human thrombin. The extent of platelet aggregation is quantitated by the maximum aggregation amplitude and inhibition of aggregation rate observed in the absence of inhibitor.

thrombus formation = test: Arterio-venous shunt thrombosis model; format: in vivo; conditions: rat
Description: In the arterio-venous shunt thrombosis model in the rat, a modification of the model described by Butler et al. (Blood Coag. Fibrinol., Vol. 3, (1992), page 155), the compounds of the invention prevent thrombus formation in a dose dependent manner. Using the compound of Example 1, thrombus formation is inhibited by 21% at a dose of 0.3 mg/kg i.v. and blocked by a dose of 3 mg/kg i.v.

Structure (SMILES): NC(N)=NCCC[C@H](NC(=O)[C@@H]1CCCN1C(=O)[C@H](N)Cc1ccccc1)C(=O)CCl [D-Phe-Pro-Arg-CH2Cl]
- inhibition in vitro (thrombin): ~10^-8 M

Structure (SMILES): N=C(N)NCCC[C@@H](C=O)NC(=O)[C@@H]1CCCN1C(=O)[C@H](N)Cc1ccccc1 [D-Phe-Pro-Arginal]
- inhibition in vitro (thrombin): ~10^-8 M
- LD50 value [1]: quite a low

Structure (SMILES): CC(C)(C)OC(=O)NC(C[Si](C)(C)C)C(=O)N1CCCC1C(=O)NC(CCCCO)B1OC2CC3CC(C3(C)C)C2(C)O1 [Example 1, Boc-D-TMSal-Pro-NH-CH[(CH2)4OH]B-OPin]
- concentration at which prolongation of TT above 300 sec is achieved [2]: 1.8 µM
- concentration at which elevation of APTT to 2x the control value is achieved [3]: 4.4 µM
- IC50 (Washed human platelets): 3.8 nM
- thrombus formation is inhibited (thrombus formation; dose of 0.3 mg/kg i.v.): 21%
- thrombus formation (thrombus formation; dose of 3 mg/kg i.v.): blocked
